Read-outs that look alike come from different tables or passages of the source. Where a SMILES comes first, the peptide text is derived from it. [ ]: non-standard residue; d: D form. The star is where a group is joined. Arachidoyl = CCCCCCCCCCCCCCCCCCCC(=O)*; Palmitoyl = CCCCCCCCCCCCCCCC(=O)*; hPhe = N[C@@H](CCc1ccccc1)C(=O)O; Phg = N[C@H](C(=O)O)c1ccccc1; Pip = O=C(O)[C@@H]1CCCCN1
Assays:
DENV protease = target: T1, DENV protease (Dengue virus type 2, UniProt P29990); assay: biochemical; settings: read-out: inhibition of DENV
T1 construct: The virus-encoded dengue protease comprises the amino-terminal 180 amino acids of NS3 (NS3pro) of the polyprotein
Method: (§1) Dilutions were made starting from 10 mM stock solutions in DMSO and final concentrations were measured in triplicates. The inhibitors were preincubated for 15 min with DENV protease (100 nM) in the assay buffer (50 mM Tris-HCl pH 9.0, ethylene glycol (10% v/v), and 0.0016% Brij 58). The enzymatic reaction was initiated by the addition of the FRET substrate (final concentration 50 μM) to obtain a final assay volume of 100 μL per well. The enzymatic activity was monitored for 15 min and determined as a slope of relative fluorescence units per second (RFU/s) for each concentration. The mean of the triplicates were plotted against the corresponding concentration in CDDVault to determine the IC50-values. Analogous procedures were used to determine the inhibitory potency on WNV (Kühl et al., J. Med. Chem. 2020, 63 (15): 8179-8197) and ZIKA protease (Nitsche et al., ACS Med. Chem. Lett. 2019 Feb. 14; 10 (2): 168-174). For selectivity screening of active candidates, similar biochemical assays with human serine proteases trypsin (Weigel et al., J. Med. Chem. 2015, 58 (19), 7719-7733.) and/or thrombin (Nitsche et al., J. Med. Chem. 2013, 56 (21), 8389-8403) were used.

WNV protease [1] = target: T2, WNV protease (West Nile virus, UniProt P06935); assay: WNV protease assay (analogous procedure); type: biochemical; settings: for inhibition at 1 µM: read-out: inhibition of WNNV
T2 construct: a trypsin-like serine protease domain in the N-terminal region of the flaviviral NS3 proteins
Method: as §1, with “By catalytic activity of the protease, the cleaved substrate results in increased fluorescence that can be monitored using a BMG Labtech Fluostar OPTIMA Microtiter fluorescence plate reader (excitation wavelength of 320 nm and a monitored emission wavelength of 405 nm). Dilutions” for “Dilutions”

human Thrombin = human Thrombin (Homo sapiens, UniProt P00734); assay: Selectivity screening, human serine protease thrombin; type: biochemical; settings: read-out: inhibition of human Thrombin
Method: as §1, with “By catalytic activity of the protease, the cleaved substrate results in increased fluorescence that can be monitored using a BMG Labtech Fluostar OPTIMA Microtiter fluorescence plate reader (excitation wavelength of 320 nm and a monitored emission wavelength of 405 nm). Dilutions” for “Dilutions”

human Trypsin = human Trypsin (Homo sapiens, UniProt P07477); assay: Selectivity screening, human serine protease trypsin; type: biochemical; settings: read-out: inhibition of human Trypsin
Method: as §1, with “By catalytic activity of the protease, the cleaved substrate results in increased fluorescence that can be monitored using a BMG Labtech Fluostar OPTIMA Microtiter fluorescence plate reader (excitation wavelength of 320 nm and a monitored emission wavelength of 405 nm). Dilutions” for “Dilutions”

WNV protease [2] = target: T2, WNV protease; assay: WNV protease assay (analogous procedure); type: biochemical; settings: read-out: IC50 for WNNV
ZIKA protease = target: T3, ZIKA protease (Zika virus, UniProt Q32ZE1); assay: biochemical; settings: for inhibition at 1 µM / inhibition at 50 µM: read-out: inhibition of ZIKV
T3 construct: a trypsin-like serine protease domain in the N-terminal region of the flaviviral NS3 proteins
Method: as §1, with “By catalytic activity of the protease, the cleaved substrate results in increased fluorescence that can be monitored using a BMG Labtech Fluostar OPTIMA Microtiter fluorescence plate reader (excitation wavelength of 320 nm and a monitored emission wavelength of 405 nm). Dilutions” for “Dilutions”

T2 sequence (P06935 1424-1463): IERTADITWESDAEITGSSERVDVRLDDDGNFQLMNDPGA
T2 sequence (P06935 1502-1679): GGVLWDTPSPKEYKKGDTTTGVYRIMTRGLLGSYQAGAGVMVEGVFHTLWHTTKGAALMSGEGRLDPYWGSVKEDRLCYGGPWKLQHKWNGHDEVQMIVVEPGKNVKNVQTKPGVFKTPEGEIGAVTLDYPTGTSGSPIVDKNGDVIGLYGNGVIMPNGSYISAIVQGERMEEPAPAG
T3 sequence (Q32ZE1 1499-1676): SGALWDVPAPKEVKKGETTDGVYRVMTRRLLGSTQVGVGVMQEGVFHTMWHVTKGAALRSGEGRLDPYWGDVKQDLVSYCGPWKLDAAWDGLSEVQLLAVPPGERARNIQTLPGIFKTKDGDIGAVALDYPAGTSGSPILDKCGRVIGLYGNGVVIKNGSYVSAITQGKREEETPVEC
T3 sequence (Q32ZE1 1421-1460): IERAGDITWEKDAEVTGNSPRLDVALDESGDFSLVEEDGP
T1 sequence (P29990 1398-1437): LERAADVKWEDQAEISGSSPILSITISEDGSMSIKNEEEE
T1 sequence (P29990 1476-1653): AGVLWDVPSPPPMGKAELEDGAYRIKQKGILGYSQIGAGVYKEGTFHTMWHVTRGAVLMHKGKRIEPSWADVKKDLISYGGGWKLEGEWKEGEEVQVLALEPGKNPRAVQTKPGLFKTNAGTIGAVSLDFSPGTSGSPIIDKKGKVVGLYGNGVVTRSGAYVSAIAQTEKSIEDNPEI

SMILES | inhibition at 50 µM (DENV protease) | inhibition at 50 µM (WNV protease [1]) | inhibition at 5 µM (human Thrombin; at 5 μM) | inhibition at 25 µM (human Trypsin; at 25 μM) | IC50 (WNV protease [2]) | also measured
CCCCCCCCCCCCCCCC(=O)N[C@@H](CCCCN)C(=O)N1CCC[C@H]1C(=O)N[C@H](C(=O)N[C@@H](CCCCN)C(N)=O)c1ccccc1 [compound 13] (Palmitoyl-KP[Phg]K-NH2) | ≥ 25% | ≥ 25% | < 5% | < 20% | ≤ 40 µM | inhibition at 5 µM (human Trypsin; at 5 μM): < 10%
CCCCCCCCCCCCCCCC(=O)N[C@@H](CCCCN)C(=O)N1CCCC[C@H]1C(=O)N[C@H](C(=O)N[C@@H](CCCCN)C(N)=O)c1ccccc1 [compound 16] (Palmitoyl-K[Pip][Phg]K-NH2) | ≥ 25% | ≥ 25% | < 5% | < 20% | ≤ 40 µM | inhibition at 5 µM (human Trypsin; at 5 μM): < 10%
CCCCCCCCCCCCCCCC(=O)N[C@@H](CCCCN)C(=O)N[C@@H](C)C(=O)N[C@@H](C)C(=O)N[C@@H](Cc1ccccc1)C(N)=O [compound 17] (Palmitoyl-KAAF-NH2) | ≥ 25% | ≥ 25% | < 5% | < 20% | ≤ 40 µM | inhibition at 5 µM (human Trypsin; at 5 μM): < 10%
CCCCCCCCCCCCCCCC(=O)N[C@@H](C)C(=O)N[C@@H](CCCNC(=N)N)C(=O)N[C@@H](CCC(N)=O)C(=O)N[C@@H](CCCCN)B(O)O [compound 39] | ≥ 25% | – | – | – | ≤ 40 µM | inhibition at 1 µM (DENV protease): ≥ 20%; IC50 (ZIKA protease): ≤ 25 µM; inhibition at 1 µM (ZIKA protease): ≥ 10%; inhibition at 50 µM (ZIKA protease): ≥ 65%
CCCCCCCCCCCCCCCC(=O)N[C@@H](CCCNC(=N)N)C(=O)N[C@@H](CCC(N)=O)C(=O)N[C@@H](CCCCN)B(O)O [compound 41] | ≥ 25% | – | – | – | ≤ 40 µM | inhibition at 1 µM (DENV protease): ≥ 20%
CC(=O)N[C@@H](C)C(=O)N[C@@H](CCCNC(=N)N)C(=O)N[C@@H](CCC(N)=O)C(=O)N[C@@H](CCCCN)B(O)O [compound 48] | ≥ 25% | ≥ 25% | – | – | ≤ 40 µM | inhibition at 1 µM (DENV protease): ≥ 20%; IC50 (ZIKA protease): ≤ 25 µM; inhibition at 1 µM (ZIKA protease): ≥ 10%; inhibition at 50 µM (ZIKA protease): ≥ 65%
CCCCCCCCCCCCCCCC(=O)N[C@@H](CCCCN)C(=O)N[C@@H](C)C(=O)N[C@@H](C)C(=O)N[C@@H](CCc1ccccc1)C(N)=O [compound 90] (Palmitoyl-KAA[hPhe]-NH2) | ≥ 25% | ≥ 25% | < 5% | < 20% | ≤ 40 µM | inhibition at 5 µM (human Trypsin; at 5 μM): < 10%
CCCCCCCCCCCCCCCCCCCC(=O)N[C@@H](CCCCN)C(=O)N[C@@H](C)C(=O)N[C@@H](C)C(=O)N[C@H](CCCCN)C(N)=O [compound 132] (Arachidoyl-KAA[dK]-NH2) | ≥ 25% | ≥ 25% | < 5% | < 20% | ≤ 40 µM | inhibition at 1 µM (DENV protease): ≥ 20%; inhibition at 1 µM (WNV protease [1]): ≥ 10%
CCCCCCCCCCCCCCCC(=O)N[C@@H](CCCCN)C(=O)N1CCC[C@H]1C(=O)N[C@@H](C)C(=O)N[C@@H](CCCCN)C(N)=O [compound 156] (Palmitoyl-KPAK-NH2) | ≥ 25% | – | – | – | ≤ 40 µM | –
CCCCCCCCCCCCCCCC(=O)N[C@@H](CCCCN)C(=O)N[C@@H](C)C(=O)N[C@@H](Cc1cnc[nH]1)C(N)=O [compound 167] (Palmitoyl-Lys-Ala-His-NH2) | – | ≥ 25% | < 5% | – | ≤ 40 µM | inhibition at 1 µM (DENV protease): ≥ 20%; IC50 (ZIKA protease): ≤ 25 µM; inhibition at 1 µM (ZIKA protease): ≥ 10%; inhibition at 50 µM (ZIKA protease): ≥ 65%
CCCCCCCCCCCCCCCC(=O)N[C@@H](CCCCN)C(=O)N[C@@H](C)C(=O)N[C@@H](CCCCN)C(=O)c1ccccc1 [compound 174] | ≥ 25% | ≥ 25% | – | – | ≤ 40 µM | inhibition at 5 µM (human Thrombin): < 5%; inhibition at 5 µM (human Trypsin): < 10%; inhibition at 25 µM (human Trypsin): < 20%
CCCCCCCCCCCCCCCC(=O)N[C@@H](CCCCN)C(=O)N[C@@H](C)C(=O)N[C@@H](CCCCN)C(=O)C(N)=O [compound 176] | ≥ 25% | ≥ 25% | < 5% | – | ≤ 40 µM | IC50 (ZIKA protease): ≤ 25 µM; inhibition at 50 µM (ZIKA protease): ≥ 65%
CCCCCCCCCCCCCCCC(=O)N[C@@H](CCCCN)C(=O)N[C@@H](C)C(=O)N[C@@H](C)C(=O)N[C@H](C=O)CCCCN [compound 180] (Palmitoyl-KAAK-aldehyde) | ≥ 25% | ≥ 25% | < 5% | – | ≤ 40 µM | –
CCCCCCCCCCCCCCCC(=O)N[C@@H](CCCCN)C(=O)N[C@@H](C)C(=O)N[C@@H](C)C(=O)N[C@@H](C=O)CCCCN [compound 181] (Palmitoyl-KAA[dK]-aldehyde) | ≥ 25% | ≥ 25% | < 5% | < 20% | ≤ 40 µM | –
CCCCCCCCCCCCCCCC(=O)N[C@@H](CCCCN)C(=O)N[C@@H](C)C(=O)N[C@@H](CCCCN)B(O)O [compound 182] | ≥ 25% | ≥ 25% | – | – | ≤ 40 µM | –
CCCCCCCCCCCCCCCC(=O)N[C@@H](CCCCN)C(=O)N[C@@H](C)C(=O)N[C@@H](C)C(=O)N[C@@H](CCCCN)C(O)O [compound 183] | ≥ 25% | ≥ 25% | – | – | ≤ 40 µM | –
CCCCCCCCCCCCCCCC(=O)N[C@@H](CCCCN)C(=O)N[C@@H](C)C(=O)N[C@@H](CCCCN)C(=O)N(C)C [compound 184] (Palmitoyl-Lys-Ala-Lys-NMe2) | ≥ 25% | ≥ 25% | – | – | – | –
CCCCCCCCCCCCCCCC(=O)N[C@@H](CCCCN)C(=O)N[C@@H](C)C(=O)N[C@@H](CCCCN)C(=O)N(C)OC [compound 185] | ≥ 25% | ≥ 25% | – | – | – | –
CCCCCCCCCCCCCCCC(=O)N[C@@H](CCCCN)C(=O)N[C@@H](C)C(=O)N[C@H](C=O)CCCCN [compound 186] (Palmitoyl-Lys-Ala-Lys-aldehyde) | ≥ 25% | ≥ 25% | < 5% | – | ≤ 40 µM | inhibition at 1 µM (WNV protease [1]): ≥ 10%
CCCCCCCCCCCCCCCC(=O)N[C@H](CCCCN)C(=O)N[C@@H](C)C(=O)N[C@@H](Cc1ccccc1)C(N)=O [compound 190] (Palmitoyl-[dK]-Ala-Phe-NH2) | ≥ 25% | ≥ 25% | < 5% | < 20% | ≤ 40 µM | inhibition at 5 µM (human Trypsin; at 5 μM): < 10%
CCCCCCCCCCCCCCCC(=O)N[C@@H](Cc1c[nH]c2ccccc12)C(=O)N[C@@H](C)C(=O)N[C@@H](C)C(=O)N[C@@H](Cc1c[nH]c2ccccc12)C(N)=O [compound 191] (Palmitoyl-WAAW-NH2) | – | ≥ 25% | – | – | – | –
CCCCCCCCCCCCCCCC(=O)N[C@@H](CCCCN)C(=O)N[C@@H](C)C(=O)N[C@@H](Cc1ccccc1)C(N)=O [compound 192] (Palmitoyl-Lys-Ala-Phe-NH2) | ≥ 25% | ≥ 25% | – | – | – | –
CCCCCCCCCCCCCCCC(=O)N[C@H](CCCCN)C(=O)N[C@@H](C)C(=O)N[C@@H](C)C(=O)N[C@@H](Cc1ccccc1)C(N)=O [compound 193] (Palmitoyl-[dK]AAF-NH2) | ≥ 25% | ≥ 25% | – | – | ≤ 40 µM | –

Reference: patent publication US20250059231A1, “Protease inhibitors” (priority 2021, published 2025)
